Results as given in the supplement of paper PMC7600603.

Key:
DLD1 NRF2-WT [1] = assay: drug sensitivity score (DSS) viability (DSS score); higher = more sensitive; extreme values may be limits of the assay; conditions: 72 h; CellTiter-Glo viability
Summary of the method: (§1)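 DLD1 colorectal cancer cells, an isogenic pair either NRF2 wild-type or carrying a CRISPR gain-of-function, were cultured in DMEM with 10% FBS and treated in 384-well plates with library compounds at 5 concentrations across a 10,000-fold range. CellTiter-Glo viability was read on a Pherastar FS reader after 72 h and normalised to vehicle wells and 100-μM positive-control wells. Four-parameter logistic dose-response fits were applied. EC50 and drug sensitivity score, a normalised area under the curve, were taken from these fits.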

DLD1 NRF2-GOF [2] = assay: as above; conditions: 72 h; CellTiter-Glo viability
Summary of the method: as §1

DLD1 NRF2-WT [3] = conditions: 72 h; CellTiter-Glo viability
Summary of the method: as §1

DLD1 NRF2-GOF [4] = conditions: 72 h; CellTiter-Glo viability
Summary of the method: as §1

DLD1 NRF2-WT [5] = assay: TC50 cytotoxicity; higher = less toxic; conditions: 72 h; CellTox Green cytotoxicity
Summary of the method: (§2)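 Isogenic DLD1 colorectal cancer cells differing in NRF2 status, one line edited by CRISPR, were cultured in DMEM with 10% FBS and treated in 384-well plates with library compounds at 5 concentrations spanning a 10,000-fold range. Plates were read after 72 h with CellTox Green on a Pherastar FS reader, and signals were normalised to vehicle wells and 100-μM positive-control wells. Cytotoxicity was summarised as TC50 and as a drug sensitivity score, a normalised area under the curve, both from logistic dose-response fits.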

DLD1 NRF2-GOF [6] = assay: TC50 cytotoxicity; higher = less toxic; conditions: 72 h; CellTox Green cytotoxicity
Summary of the method: as §2

DLD1 NRF2-WT [7] = assay: drug sensitivity score (DSS) cytotoxicity (DSS score); higher = more toxic; extreme values may be limits of the assay; conditions: 72 h; CellTox Green cytotoxicity
Summary of the method: as §2

DLD1 NRF2-GOF [8] = assay: as above; conditions: 72 h; CellTox Green cytotoxicity
Summary of the method: as §2

Structure (SMILES) | drug sensitivity score (DLD1 NRF2-WT [1]) | drug sensitivity score (DLD1 NRF2-GOF [2]) | EC50 viability (DLD1 NRF2-WT [3]) | EC50 viability (DLD1 NRF2-GOF [4]) | TC50 cytotoxicity (DLD1 NRF2-WT [5]) | TC50 cytotoxicity (DLD1 NRF2-GOF [6]) | drug sensitivity score (DLD1 NRF2-WT [7]) | drug sensitivity score (DLD1 NRF2-GOF [8])
CN(C)CCOc1ccc(/C(=C(/CCCl)c2ccccc2)c2ccccc2)cc1 [Toremifene] | 2.2 | 4.8 | 4.21 µM | 2.15 µM | > 10 µM | > 10 µM | 0 | 0
CC1=C(/C=C/C(C)=C/C=C/C(C)=C/C(=O)O)C(C)(C)CCC1 [Tretinoin] | 17.7 | 12.1 | 0.001 µM | 0.0965 µM | > 10 µM | > 10 µM | 0 | 0
O=c1[nH]c(=O)n([C@H]2C[C@H](O)[C@@H](CO)O2)cc1C(F)(F)F [Trifluridine] | 0 | 2.2 | > 10 µM | 2.51 µM | > 10 µM | > 10 µM | 0 | 0
CN1CCc2c(c3ccccc3n2Cc2ccc(C(=O)NO)cc2)C1 [Tubastatin A] | 4 | 4.1 | 0.295 µM | 1.56 µM | > 10 µM | > 10 µM | 0 | 0
CC(C)Nc1cc(-c2c[nH]c(C(=O)N[C@H](CO)c3cccc(Cl)c3)c2)c(Cl)cn1 [Ulixertinib] | 6.1 | 6.3 | 1.47 µM | 1.14 µM | > 10 µM | > 10 µM | 0 | 0
CC[C@@H]1CN(C(=O)NCC(F)(F)F)C[C@@H]1c1cnc2cnc3[nH]ccc3n12 [Upadacitinib] | 0 | 10.7 | > 10 µM | 0.0101 µM | > 10 µM | > 10 µM | 0 | 0
Cn1ncc(Cl)c1-c1cc(C(=O)N[C@H](CN)Cc2ccc(F)c(F)c2)oc1Cl [Uprosertib] | 3.4 | 0 | > 10 µM | > 10 µM | > 10 µM | > 10 µM | 0 | 0
CNC(=O)c1ccccc1Nc1cc(Nc2ccc(N3CCOCC3)cc2OC)ncc1C(F)(F)F [VS-4718] | 4.3 | 4.7 | 1.94 µM | 1.6 µM | > 10 µM | > 10 µM | 0 | 0
O=c1ncn2nc(Sc3ccc(F)cc3F)ccc2c1-c1c(Cl)cccc1Cl [VX-745] | 1.4 | 0.2 | > 10 µM | > 10 µM | > 10 µM | > 10 µM | 0 | 0
CCCCC(=O)OCC(=O)[C@]1(O)Cc2c(O)c3c(c(O)c2[C@@H](O[C@H]2C[C@H](NC(=O)C(F)(F)F)[C@H](O)[C@H](C)O2)C1)C(=O)c1c(OC)cccc1C3=O [Valrubicin] | 6.8 | 8.1 | 0.547 µM | 0.479 µM | > 5 µM | > 5 µM | 0 | 0
C[C@]1(c2nc3c(C(N)=O)cccc3[nH]2)CCCN1 [Veliparib] | 2.9 | 0 | 1.57 µM | > 10 µM | > 10 µM | > 10 µM | 0 | 0
CCCS(=O)(=O)Nc1ccc(F)c(C(=O)c2c[nH]c3ncc(-c4ccc(Cl)cc4)cc23)c1F [Vemurafenib] | 0.2 | 0 | > 10 µM | > 10 µM | > 10 µM | > 10 µM | 0 | 0
CCCCOc1nc(N)c2c(n1)N(Cc1cccc(CN3CCCC3)c1)CC(=O)N2 [Vesatolimod] | 0 | 0.1 | > 10 µM | > 10 µM | > 10 µM | > 10 µM | 0 | 0
CNC(=O)c1cccc(-c2ccc3c(N4CCOC[C@@H]4C)nc(N4CCOC[C@@H]4C)nc3n2)c1 [Vistusertib] | 11.9 | 9.9 | 0.371 µM | 0.675 µM | > 10 µM | > 10 µM | 0 | 0
FC(F)c1nc2ccccc2n1-c1nc(N2CCOCC2)nc(N2CCOCC2)n1 [ZSTK474] | 11.4 | 6.2 | 0.12 µM | 0.179 µM | > 10 µM | > 10 µM | 0 | 0
Cc1sc2c(c1C)C(c1ccc(Cl)cc1)=N[C@@H](CC(=O)NCCCCNC(=O)COc1cccc3c1C(=O)N(C1CCC(=O)NC1=O)C3=O)c1nnc(C)n1-2 (stereo partly drawn) [dBET1] | 6.5 | 0.7 | 0.62 µM | > 10 µM | > 10 µM | > 10 µM | 0 | 0
